Reference: patent US6191135A, “Neurokinin antagonists” (Boehringer Ingelheim KG, priority 1994, dated 2001)
pKi: −log10 of the molar value.

What follows are molecules tested against T1, NK1 -receptor (substance P-receptor) (Homo sapiens, UniProt P25103) (assay: NK1-receptor affinity: displacement of 125I labelled substance P on intact human lymphoblastoma cells (IM-9)). Settings: Ki, intact human lymphoblastoma cells (IM-9) expressing NK1-receptors.
T1 construct: intact human lymphoblastoma cells (IM-9) which express NK1 -receptors; endogenous in cells; host or cells: IM-9 human lymphoblastoma cells
T1 sequence (P25103 whole entry): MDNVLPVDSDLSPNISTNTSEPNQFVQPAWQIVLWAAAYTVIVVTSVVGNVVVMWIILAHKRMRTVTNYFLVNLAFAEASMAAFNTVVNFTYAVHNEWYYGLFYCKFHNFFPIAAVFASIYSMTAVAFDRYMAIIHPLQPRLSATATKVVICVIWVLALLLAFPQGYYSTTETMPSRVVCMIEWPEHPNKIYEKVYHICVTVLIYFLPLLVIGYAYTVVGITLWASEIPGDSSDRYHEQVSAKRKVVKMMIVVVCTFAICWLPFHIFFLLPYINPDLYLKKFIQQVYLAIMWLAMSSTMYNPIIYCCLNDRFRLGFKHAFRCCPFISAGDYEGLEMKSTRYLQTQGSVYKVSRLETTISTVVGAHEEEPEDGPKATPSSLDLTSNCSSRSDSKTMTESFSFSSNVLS
Format: binding
Method: The receptor affinity for the NK1 -receptor (substance P-receptor) was determined on intact human lymphoblastoma cells (IM-9) which express NK1 -receptors, and the displacement of ^125 I labelled substance P was measured.

SMILES | pKi
COc1ccccc1C(CNC(=O)Cc1ccc(Cl)cc1)N1CCN(C2CCCCC2)CC1 (centres unmarked) [Example 61, N-[2-(2-Methoxyphenyl)-2-(4-cyclohexylpiperazine-1-yl)-ethyl]-2-(4-chlorophenyl)-acetamide] | 6.07

Same assay, conditions: intact human lymphoblastoma cells (IM-9) expressing NK1-receptors, read-out: Ki

SMILES | pKi
COc1ccccc1C(CNCc1cc(C(F)(F)F)cc(C(F)(F)F)c1)N1CCCC(c2ccccc2)C1 (single isomer, unassigned) [Example 86, 3,5-Bistrifluoromethylbenzyl-[2-(2-methoxyphenyl)-2-(3-phenylpiperidine-1-yl)-ethyl]-amine] | 6.43
COc1ccccc1C(CNCc1cc(C(F)(F)F)cc(C(F)(F)F)c1)N1CCN(c2ccccc2)CC1 (centres unmarked) [Example 1, 3,5-Bistrifluoromethylbenzyl-[2-(2-methoxyphenyl)-2-(4-phenylpiperazine-1-yl)-ethyl]-amine] | 6.48
COc1ccccc1C(CN(Cc1cc(C(F)(F)F)cc(C(F)(F)F)c1)C(C)=O)N1CCN(c2ccccc2)CC1 (centres unmarked) [Example 2, N-3,5-Bistrifluoromethylbenzyl-N-[2-(2-methoxyphenyl)-2-(4-phenylpiperazine-1-yl)-ethyl]-acetamide] | 6.04
FC(F)(F)c1cc(CNCC(c2ccccc2)N2CCN(c3ccccc3)CC2)cc(C(F)(F)F)c1 (centres unmarked) [Example 3, 3,5-Bistrifluoromethylbenzyl-[2-phenyl-2-(4-phenylpiperazine-1-yl)-ethyl]-amine] | 6.10
COc1ccccc1C(CNCc1cc(C(F)(F)F)cc(C(F)(F)F)c1)N1CCN(c2ccccc2C)CC1 (centres unmarked) [Example 19, 3,5-Bistrifluoromethylbenzyl-[2-(2-methoxyphenyl)-2-(4-(2-methylphenyl)-piperazine-1-yl)-ethyl]-amine] | 6.24
COc1ccccc1C(CNCc1cc(C(F)(F)F)cc(C(F)(F)F)c1)N1CCN(c2cccc(C)c2C)CC1 (centres unmarked) [Example 20, 3,5-Bistrifluoromethylbenzyl-[2-(2-methoxyphenyl)-2-(4-(2,3-dimethylphenyl)-piperazine-1-yl)-ethyl]-amine] | 6.28
COc1ccccc1C(CNCc1cc(C(F)(F)F)cc(C(F)(F)F)c1)N1CCN(Cc2ccccc2)CC1 (centres unmarked) [Example 22, 3,5-Bistrifluoromethylbenzyl-[2-(2-methoxyphenyl)-2-(4-benzylpiperazine-1-yl)-ethyl]-amine] | 6.81
COc1ccccc1C(CNCc1cc(C(F)(F)F)cc(C(F)(F)F)c1)N1CCN(C(C)c2ccccc2)CC1 (centres unmarked) [Example 23, 3,5-Bistrifluoromethylbenzyl-[2-(2-methoxyphenyl)-2-(4-(1-phenylethyl)-piperazine-1-yl)-ethyl]-amine] | 6.97
COc1ccccc1C(CNCc1cc(C(F)(F)F)cc(C(F)(F)F)c1)N1CCN(CCc2ccccc2)CC1 (centres unmarked) [Example 26, 3,5-Bistrifluoromethylbenzyl-[2-(2-methoxyphenyl)-2-(4-(2-phenylethyl)-piperazine-1-yl)-ethyl]-amine] | 8.15
COc1ccccc1C(CNCc1cc(C(F)(F)F)cc(C(F)(F)F)c1)N1CCN(Cc2ccc3c(c2)OCO3)CC1 (centres unmarked) [Example 27, 3,5-Bistrifluoromethylbenzyl-[2-(2-methoxyphenyl)-2-(4-(3,4-methylenedioxybenzyl)-piperazine-1-yl)-ethyl]-amine] | 6.95
COc1ccccc1C(CNCc1cc(C(F)(F)F)cc(C(F)(F)F)c1)N1CCN(c2ccccn2)CC1 (centres unmarked) [Example 28, 3,5-Bistrifluoromethylbenzyl-[2-(2-methoxyphenyl)-2-(4-(2-pyridyl)-piperazine-1-yl)-ethyl]-amine] | 6.99
COc1ccccc1C(CNCc1cc(C(F)(F)F)cc(C(F)(F)F)c1)N1CCN(c2ccc3ccccc3n2)CC1 (centres unmarked) [Example 29, 3,5-Bistrifluoromethylbenzyl-[2-(2-methoxyphenyl)-2-(4-(2-quinolinyl)-piperazine-1-yl)-ethyl]-amine] | 6.92
CN1CCN(C(CNCc2cc(C(F)(F)F)cc(C(F)(F)F)c2)c2ccccc2)CC1 (centres unmarked) [Example 30, 3,5-Bistrifluoromethylbenzyl-[2-phenyl-2-(4-methylperazine-1-yl)-ethyl]-amine] | 7.05
COc1ccccc1C(CNCc1cc(C(F)(F)F)cc(C(F)(F)F)c1)N1CCN(C)CC1 (centres unmarked) [Example 31, 3,5-Bistrifluoromethylbenzyl-[2-(2-methoxyphenyl)-2-(4-methylpiperazine-1-yl)-ethyl]-amine] | 7.03
CCCN1CCN(C(CNCc2cc(C(F)(F)F)cc(C(F)(F)F)c2)c2ccccc2OC)CC1 (centres unmarked) [Example 32, 3,5-Bistrifluoromethylbenzyl-[2-(2-methoxyphenyl)-2-(4-(1-propyl)-piperazine-1-yl)-ethyl]-amine] | 7.64
COc1ccccc1C(CNCc1cc(C(F)(F)F)cc(C(F)(F)F)c1)N1CCN(C(C)C)CC1 (centres unmarked) [Example 34, 3,5-Bistrifluoromethylbenzyl-[2-(2-methoxyphenyl)-2-(4-(2-propyl)-piperazine-1-yl)-ethyl]-amine] | 7.42
COc1ccccc1C(CNCc1cc(C(F)(F)F)cc(C(F)(F)F)c1)N1CCN(C2CCCC2)CC1 (centres unmarked) [Example 35, 3,5-Bistrifluoromethylbenzyl-[2-(2-methoxyphenyl)-2-(4-cyclopentylpiperazine-1-yl)-ethyl]-amine] | 7.80

SMILES | pKi
FC(F)(F)c1cc(CNCC(c2ccccc2)N2CCN(C3CCCCC3)CC2)cc(C(F)(F)F)c1 (centres unmarked) [Example 36, 3,5-Bistrifluoromethylbenzyl-[2-phenyl-2-(4-cyclohexylpiperazine-1-yl)-ethyl]-amine] | 7.74
COc1ccccc1C(CNCc1cc(C(F)(F)F)cc(C(F)(F)F)c1)N1CCN(C2CCCCC2)CC1 (centres unmarked) [Example 39, 3,5-Bistrifluoromethylbenzyl-[2-(2-methoxyphenyl)-2-(4-cyclohexylpiperazine-1-yl)-ethyl]-amine] | 7.80
FC(F)(F)c1cc(CNCC(c2ccc(Cl)c(Cl)c2)N2CCN(C3CCCCC3)CC2)cc(C(F)(F)F)c1 (centres unmarked) [Example 49, 3,5-Bistrifluoromethylbenzyl-[2-(3,4-dichlorophenyl)-2-(4-cyclohexylpiperazine-1-yl]-ethyl]-amine] | 7.43
COc1ccccc1C(CNCc1cc(C(F)(F)F)cc(C(F)(F)F)c1)N1CCN(C2CCCCCC2)CC1 (centres unmarked) [Example 53, 3,5-Bistrifluoromethylbenzyl-[2-(2-methoxyphenyl)-2-(4-cycloheptylpiperazine-1-yl)-ethyl]-amine] | 8.30
COc1ccccc1C(CNCc1cc(C(F)(F)F)cc(C(F)(F)F)c1)N1CCN(CCC2CCCCC2)CC1 (centres unmarked) [Example 54, 3,5-Bistrifluoromethylbenzyl-[2-(2-methoxyphenyl)-2-(4-(2-cyclohexylethyl)-piperazine-1-yl)-ethyl]-amine] | 7.70
COc1ccccc1C(CNCc1cc(C(F)(F)F)cc(C(F)(F)F)c1)N1CCN(CCO)CC1 (centres unmarked) [Example 57, 3,5-Bistrifluoromethylbenzyl-[2-(2-methoxyphenyl)-2-(4-(2-hydroxyethyl)-piperazine-1-yl)-ethyl]-amine] | 7.19
COc1ccccc1C(CNC(=O)c1cc(C(F)(F)F)cc(C(F)(F)F)c1)N1CCN(C2CCCCC2)CC1 (centres unmarked) [Example 58, N-[2-(2-Methoxyphenyl)-2-(4-cyclohexylpiperazine-1-yl)-ethyl]-3,5-bistrifluoromethylbenzamide] | 7.64
COc1ccccc1C(CNC(=O)Cc1ccc(Cl)c(Cl)c1)N1CCN(C2CCCCC2)CC1 (centres unmarked) [Example 62, N-[2-(2-Methoxyphenyl)-2-(4-cyclohexylpiperazine-1-yl)-ethyl]-2-(3,4-dichlorophenyl)-acetamide] | 6.56
COc1ccccc1C(CNC(=O)Cc1ccccc1C(F)(F)F)N1CCN(C2CCCCC2)CC1 (centres unmarked) [Example 64, N-[2-(2-Methoxyphenyl)-2-(4-cyclohexylpiperazine-1-yl)-ethyl]-2-(2-trifluoromethylphenyl)-acetamide] | 6.56
COc1ccccc1C(CNCCc1cc(C(F)(F)F)cc(C(F)(F)F)c1)N1CCN(C2CCCCC2)CC1 (centres unmarked) [Example 66, 2-(3,5-Bistrifluoromethylphenyl)-2'-(2-methoxyphenyl)-2'-(4-cyclohexylpiperazine-1-yl)-diethylamine] | 7.64
COc1ccccc1C(CNC(=O)c1cc(C(F)(F)F)cc(C(F)(F)F)c1)N1CCN(C2CCCCC2)CC1 (centres unmarked) [Example 67, N-[2-(2-Methoxyphenyl)-2-(4-cyclohexylpiperazine-1-yl)-ethyl]-3,5-bistrifluoromethylbenzamide] | 7.85
COc1ccccc1C(CNC(=O)Cc1cc(C(F)(F)F)cc(C(F)(F)F)c1)N1CCN(C2CCCCCC2)CC1 (centres unmarked) [Example 68, N-[2-(2-Methoxyphenyl)-2-(4-cycloheptylpiperazine-1-yl)-ethyl]-2-(3,5-bistrifluoromethyl-phenyl)-acetamide] | 8.52
COc1ccccc1C(CNCCc1cc(C(F)(F)F)cc(C(F)(F)F)c1)N1CCN(C2CCCCCC2)CC1 (centres unmarked) [Example 69, 2-(3,5-Bistrifluoromethylphenyl)-2'-(2-methoxyphenyl)-2'-(4-cycloheptylpiperazine-1-yl)-diethylamine] | 7.80
COc1ccccc1C(CNC(=O)c1cc(C(F)(F)F)cc(C(F)(F)F)c1)N1CCCCC1 (centres unmarked) [Example 75, N-[2-(2-Methoxyphenyl)-2-piperidin-1-yl-ethyl]-3,5-bistrifluoromethylbenzamide] | 6.15
COc1ccccc1C(CNC(=O)Cc1cc(C(F)(F)F)cc(C(F)(F)F)c1)N1CCCCC1 (centres unmarked) [Example 78, N-[2-(2-Methoxyphenyl)-2-piperidin-1-yl-ethyl]-2-(3,5-bistrifluoromethylphenyl)acetamide] | 6.60
COc1ccccc1C(CNCCc1cc(C(F)(F)F)cc(C(F)(F)F)c1)N1CCCCC1 (centres unmarked) [Example 79, 2-(3,5-Bistrifluoromethylphenyl)-2'-(2-methoxyphenyl)-2'-piperidine-1-yl-diethylamine] | 7.34
COc1ccccc1C(CNCc1cc(C(F)(F)F)cc(C(F)(F)F)c1)N1CCCCC1C (centres unmarked) [Example 80, 3,5-Bistrifluoromethylbenzyl-[2-(2-methoxyphenyl)-2-(2-methylpiperidine-1-yl)-ethyl]-amine] | 7.37
